In patent US11253497B2, “Use of derivatives of polyunsaturated fatty acids as medicaments” (Lipopharma Therapeutics, S.L., priority 2009, dated 2022):

Tests used:
[1] = system: breast cancer cells MDA-MB-231; test: Growth of breast cancer cells MDA-MB-231; assay type: cell-based; settings: 72 hours of incubation
Experimental: (§1) For the experiments shown in FIG. 1, cultured human Non Small Cell Lung Cancer cells (A549) in RPMI 1640 were used, supplemented with 10% foetal bovine serum and antibiotics, at 37° C. and 5% CO2. […] After treatment, cell count was performed and the study of the mechanisms involved in the antitumor activity of compounds was evaluated by flow cytometry. […] These values correspond to averages of three independent experiments.
(§2) These charts show the antitumor efficacy of the compounds of this invention against the growth of breast cancer cells, brain (glioma), and lung cancer. […] The other experimental conditions are identical to those described in the preceding paragraph.

[2] = system: brain cancer cell (glioma) U118; test: Brain cancer (glioma) U118 cell growth; assay type: cell-based; settings: 72 hours of incubation
Experimental: For the experiments shown in FIG. 1, cultured human Non Small Cell Lung Cancer cells (A549) in RPMI 1640 were used, supplemented with 10% foetal bovine serum and antibiotics, at 37° C. and 5% CO2. Cells were maintained in culture for 48 hours in the presence or absence of D-PUFAs and PUFAs indicated in Table 2 at a concentration of 250 µM. After treatment, cell count was performed and the study of the mechanisms involved in the antitumor activity of compounds was evaluated by flow cytometry. […] These values correspond to averages of three independent experiments.
as §2

[3] = system: lung cancer cells A549; test: Growth of lung cancer cells A549 (IC50); assay type: cell-based, human; settings: 72 hours of incubation
Experimental: as §1, §2

[4] = system: Spontaneously Hypertensive Rats (SHR); test: Blood pressure of SHR rats (cuff-tail method); assay type: in vivo, rat; settings: 200 mg/kg day p.o., 30 days, before treatment 214 mmHg
Experimental: (§3) In a separate experimental series, it was studied the effect of D-PUFA molecules of the present invention on blood pressure of SHR rats. In these animals both, blood pressure and levels of apolipoprotein AI (apoA-I) were measured. For these experiments Spontaneously Hypertensive Rats (SHR) were treated for 30 days with vehicle (water control) or compounds of the invention (200 mg/kg day, p.o.). At the end of this period, the animals' blood pressure and serum levels of apoA-I were measured. […] For these experiments, non-invasive methods for determining blood pressure (cuff-tail method) and gene expression for apoA-I (RT-PCR) described in the literature (Terés et al., 2008) were used. The usefulness of the molecules of the present invention for the treatment of cardiovascular diseases is reinforced by its capacity for reducing the levels of serum cholesterol and triglycerides (see below).
(§4) The average values of SHR before treatment were 214 mmHg and 100% respectively.

[5] = system: apolipoprotein AI (apoA-I); test: Levels of apoA-I in SHR rats (RT-PCR); assay type: in vivo, rat; settings: 200 mg/kg day p.o., 30 days, before treatment 100%
Experimental: as §3, §4

[6] = system: P19 cells; test: NMDA-induced neuronal death in P19 cells; assay type: cell-based; settings: NMDA alone 100% death, control without NMDA 0%; negative values = proliferation
[7] = system: α-synuclein; test: Expression of α-synuclein in neuronal cultures (cells P19); assay type: cell-based; settings: untreated cells 100%
[8] = system: COX-2; test: Expression of COX-2 in LPS-stimulated monocytes in culture; assay type: cell-based, human; settings: positive control with LPS 100%
Description: FIG. 5A also presents a drawing showing the COX-2/COX-1 relationship as % of control (Y axis) for the following compounds (X-axis): OOA (2-hydroxy-oleic acid), OLA (182A1), OALA (183A1), OGLA (183A2), OARA (204A1), OEPA (205A1), ODHA (226A1). […] The reduction of this factor is directly related to the anti-inflammatory medication. The compounds are the same as in the left pane.
(§5) Cyclooxygenase (COX) is an enzyme that can bind to membranes, taking certain lipids from there and catalyze its conversion into molecules that can have inflammatory activity. The binding of this enzyme to membrane lipids is due in part to the membrane lipid structure. The increased activity of COX 1 and 2 isoforms has been associated with the etiopathology of a number of inflammatory diseases by […] arachidonic acid metabolism to produce pro-inflammatory lipid mediators. The D-PUFA compounds of the present invention produced a series of cellular signals that alter the metabolism of arachidonic acid and, as a result, they inhibit the activity and expression of COX in monocytes in culture (Table 14 and FIG. 5A). […] For this purpose, C57BL6/J mice were treated with the various derivatives (200 mg/kg, p.o.,) after inducing an inflammatory reaction in them by intraperitoneal injection of 20 μg of bacterial lipopolysaccharide (LPS).
Inhibition of COX-2 expression in monocytes. Percentages of inhibition (compared to the positive control in the presence of LPS, 100%) of COX-2 protein levels (expression) by the various fatty acid derivatives.

[9] = system: TNF-α; test: Production of TNF-α in serum of LPS-injected C57BL6/J mice; assay type: in vivo; settings: LPS 20 μg i.p. (100%), 200 mg/kg p.o.
Description: as §5

[10] = Serum cholesterol, triglycerides and glucose in SHR rats (colorimetric); assay type: in vivo, rat; settings: 200 mg/kg daily p.o., 28 days, untreated rats 100%
Experimental: In a separate experimental series, SHR rats were treated with various compounds of the present invention (200 mg/kg daily, 28 days, p.o.) and the levels of cholesterol, triglycerides and glucose in serum were measured by colorimetric methods. It was observed that these compounds induce significant (and in many cases marked) reductions in the levels of these metabolites (Table 16).
Values are expressed as percent, and in untreated (control) rats values were always considered as 100%.

Compound	IC50 [1] [µM]	IC50 [2] [µM]	IC50 [3] [µM]	Blood pressure [4] [mm Hg]	Levels of apoA-I [5] [%]	Neuronal death (P19 cells) after treatment with NMDA [6] [%]	Expression of α-synuclein [7] [%]	COX-2 protein levels (expression), percentages of inhibition compared to positive control [8] [%]	Production of TNF-α in serum [9] [%]	Cholesterol in serum (top number) [10] [%]	Glucose in serum (bottom number) [10] [%]	Triglycerides in serum (central number) [10] [%]
CCCCCC=CCC=CCCCCCCC(O)C(=O)OP(=O)(OCC)OCC (stereo not drawn) [182F1]	311	236	354	198	192	−45	71	56	86	92	89	88
CCCCCC=CCC=CCCCCCCC(C)C(=O)[O-].[Na+] (stereo not drawn) [182L1]	343	229	385	207	131	−32	80	67	85	89	94	93
CCCCCC=CCC=CCCCCCCC(OC=O)C(=O)OCC (stereo not drawn) [182V1]	442	231	340	207	166	−17	83	81	81	94	93	93
CCC=CCC=CCC=CCCCCCCC(O)C(=O)OP(=O)(OCC)OCC (stereo not drawn) [183F1]	323	354	347	203	146	−35	61	46	91	78	76	71
CCCCCC=CCC=CCC=CCCCC(O)C(=O)OP(=O)(OCC)OCC (stereo not drawn) [183F2]	181	401	259	191	279	−36	52	36	86	84	85	87
CCC=CCC=CCC=CCCCCCCC(C)C(=O)[O-].[Na+] (stereo not drawn) [183L1]	306	231	285	205	125	−21	76	65	86	82	85	77
CCCCCC=CCC=CCC=CCCCC(C)C(=O)[O-].[Na+] (stereo not drawn) [183L2]	173	460	283	194	268	−29	73	48	91	83	92	79
CCC=CCC=CCC=CCCCCCCC(OC=O)C(=O)OCC (stereo not drawn) [183V1]	326	274	320	199	152	−9	87	79	84	75	79	70
CCCCCC=CCC=CCC=CCCCC(OC=O)C(=O)OCC (stereo not drawn) [183V2]	241	402	291	198	282	−18	89	68	87	84	88	92
CCCCCC=CCC=CCC=CCC=CCCC(O)C(=O)OP(=O)(OCC)OCC (stereo not drawn) [204F1]	326	275	392	199	163	−46	52	41	46	76	84	81
CCCCCC=CCC=CCC=CCC=CCCC(C)C(=O)[O-].[Na+] (stereo not drawn) [204L1]	332	247	326	197	188	−27	69	47	49	83	91	82
CCCCCC=CCC=CCC=CCC=CCCC(OC=O)C(=O)OCC (stereo not drawn) [204V1]	352	345	326	198	161	−11	82	43	42	84	87	81
CCC=CCC=CCC=CCC=CCC=CCCC(O)C(=O)OP(=O)(OCC)OCC (stereo not drawn) [205F1]	275	498	338	195	319	−44	57	47	80	71	82	83
